We go through nine compounds from patent US20040029178A1, “Novel g protein-coupled receptor proteins and dnas thereof” (priority 2000, published 2004).

As a reminder, the IC50 is the concentration needed to halve the response being measured. Read a high IC50 as weaker potency in that assay.

Peptide text beside a SMILES is read from it.

This test has as its target T1, TGR26 (Rattus norvegicus, UniProt Q56UD9).
T1 construct: expressed in transfected cells; whole cells in A1, membrane fraction in A2 and A3
T1 sequence (Q56UD9 1-329): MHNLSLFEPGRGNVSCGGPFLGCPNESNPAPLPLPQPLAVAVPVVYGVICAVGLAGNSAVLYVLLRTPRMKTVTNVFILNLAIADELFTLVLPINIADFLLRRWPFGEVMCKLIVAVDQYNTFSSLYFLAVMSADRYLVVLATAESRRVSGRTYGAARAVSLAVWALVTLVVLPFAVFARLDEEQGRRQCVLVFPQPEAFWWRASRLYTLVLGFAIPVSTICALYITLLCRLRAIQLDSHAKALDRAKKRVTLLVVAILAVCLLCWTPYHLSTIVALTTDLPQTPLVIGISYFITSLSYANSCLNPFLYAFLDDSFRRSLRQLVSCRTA
Nature of the test: Receptor binding using [125I-Tyr10]-hGPR8L (1-23) and membrane fraction of TGR26 expressing CHO cells. The following applies: membrane fraction of TGR26 expressing CHO cells, [125I-Tyr10]-hGPR8L (1-23), method of Example 8. How it is done: Using [^125I-Tyr^10]-hGPR8L (1-23) prepared by the method described in Reference Example 15 and a cell membrane fraction prepared from TGR26 expressing cells as described in Example 6, a receptor binding assay was carried out as follows.
Cell membrane fraction prepared from TGR26 expressing cells was diluted to various concentration with assay buffer (25 mM Tris-HCl, 5 mM EDTA, 0.05% CHAPS (3-[(3-Cholamidopropyl) Dimethyl-Ammonio]-1-Propanesulfonate), 0.1% BSA, 0.5 mM PMSF, 1 μg/ml Pepstatin, 20 μg/ml Leupeptin, 4 μg/ml E-64, pH 7.4), and 200 μl each of the diluent was dispensed into polypropilene test tube (Falcon 2053). In order to determine an amount of maximum binding, 2 μl of DMSO and 2 μl of 7 nM [^125I-Tyr^10]-hGPR8L (1-23) were added to the membrane fraction solution. Further, in order to determine a non-specific binding, 2 μl of 100 μM hGPR8L (1-23)/DMSO solution and 2 μl of 7 nM [^125I-Tyr^10]-hGPR8L (1-23) were added to the membrane fraction solution. The reaction was done at 25° C. for 75 minutes, and the reaction mixture was filtered by suction filtration using Whatman glassfilter (GF-F) treated with polyethyleneimine. In addition, the filter was washed twice with 1.5 ml of washing buffer (25 mM Tris-HCl, 5 mM EDTA, 0.05% CHAPS, 0.1% BSA, pH 7.4). After filtration, a radioactivity remaining on the filter was counted using γ-counter, and an amount of specific binding was estimated by subtracting an amount of non-specific binding from an amount of maximum binding.
Where the concentration of membrane fraction was set to 3 μg/ml, an inhibition for the specific binding of [125I-Tyr^10]-hGPR8L (1-23) to the membrane fraction of TGR26 expressing cells by hGPR8L (1-23) and hGPR8L (1-30) was investigated.
A receptor binding activity of human- and porcine-homologue derivatives of GPR8 ligand peptide obtained in the reference examples was measured using a membrane fraction of TGR26 expressing CHO cells and [^125I-Tyr^10]-hGPR8L (1-23) by the method described in Example 8. The receptor binding activity is represented by concentration of 50% inhibition for binding (IC50 value).
The compound `CC(C)C[C@H](NC(=O)CNC(=O)[C@H](CC[S+](C)[O-])NC(=O)[C@H](CC(C)C)NC(=O)[C@H](CC(C)C)NC(=O)CNC(=O)[C@H](C)NC(=O)[C@H](C)NC(=O)[C@H](CCCNC(=N)N)NC(=O)CNC(=O)[C@@H](NC(=O)[C@@H](NC(=O)[C@H](Cc1c[nH]cn1)NC(=O)[C@H](Cc1ccc(O)cc1)NC(=O)[C@H](CCCNC(=N)N)NC(=O)[C@@H]1CCCN1C(=O)[C@H](CO)NC(=O)[C@H](C)NC(=O)[C@@H](NC(=O)[C@H](Cc1c[nH]cn1)NC(=O)[C@H](CCCCN)NC(=O)[C@H](Cc1ccc(O)cc1)NC(=O)[C@@H](N)Cc1c[nH]c2ccccc12)C(C)C)[C@@H](C)O)C(C)C)C(=O)O` (stereo partly drawn) [[Met(O)]-hGPR8L (1-23), Trp-Tyr-Lys-His-Val-Ala -Ser-Pro-Arg-Tyr-His-Thr-Val-Gly-Arg-Ala-Ala-Gly-Leu-Leu-Met(O)-Gly-Leu] registered an IC50 of 0.29 nM.
As for `CC(C)C[C@H](NC(=O)[C@H](CC(C)C)NC(=O)CNC(=O)[C@H](C)NC(=O)[C@H](C)NC(=O)[C@H](CCCNC(=N)N)NC(=O)CNC(=O)[C@@H](NC(=O)[C@@H](NC(=O)[C@H](Cc1c[nH]cn1)NC(=O)[C@H](Cc1ccc(O)cc1)NC(=O)[C@H](CCCNC(=N)N)NC(=O)[C@@H]1CCCN1C(=O)[C@H](CO)NC(=O)[C@H](C)NC(=O)[C@@H](NC(=O)[C@H](Cc1c[nH]cn1)NC(=O)[C@H](CCCCN)NC(=O)[C@H](Cc1ccc(O)cc1)NC(=O)[C@@H](N)Cc1c[nH]c2ccccc12)C(C)C)[C@@H](C)O)C(C)C)C(=O)O` [hGPR8L (1-20), Trp-Tyr-Lys-His-Val-Ala-Ser -Pro-Arg-Tyr-His-Thr-Val-Gly-Arg-Ala-Ala-Gly-Leu-Leu] (H-WYKHVASPRYHTVGRAAGLL-OH; N-terminus and C-terminus assumed), the figure is 0.17 nM; as for `CC(C)[C@H](NC(=O)[C@H](Cc1c[nH]cn1)NC(=O)[C@H](CCCCN)NC(=O)[C@H](Cc1ccc(O)cc1)NC(=O)[C@@H](N)Cc1c[nH]c2ccccc12)C(=O)N[C@@H](C)C(=O)N[C@@H](CO)C(=O)N1CCC[C@H]1C(=O)N[C@@H](CCCNC(=N)N)C(=O)N[C@@H](Cc1ccc(O)cc1)C(=O)N[C@@H](Cc1c[nH]cn1)C(=O)N[C@H](C(=O)N[C@H](C(=O)NCC(=O)N[C@@H](CCCNC(=N)N)C(=O)N[C@@H](C)C(=O)N[C@@H](C)C(=O)NCC(=O)O)C(C)C)[C@@H](C)O` [hGPR8L (1-18), Trp-Tyr-Lys-His-Val-Ala-Ser -Pro-Arg-Tyr-His-Thr-Val-Gly-Arg-Ala-Ala-Gly] (H-WYKHVASPRYHTVGRAAG-OH; N-terminus and C-terminus assumed), 760 nM; as for `CSCC[C@H](NC(=O)[C@H](CC(C)C)NC(=O)[C@H](CC(C)C)NC(=O)CNC(=O)[C@H](C)NC(=O)[C@H](C)NC(=O)[C@H](CCCNC(=N)N)NC(=O)CNC(=O)[C@@H](NC(=O)[C@@H](NC(=O)[C@H](Cc1c[nH]cn1)NC(=O)[C@H](Cc1ccc(O)cc1)NC(=O)[C@H](CCCNC(=N)N)NC(=O)[C@@H]1CCCN1C(=O)[C@H](CO)NC(=O)[C@H](C)NC(=O)[C@@H](NC(=O)[C@H](Cc1c[nH]cn1)NC(=O)[C@H](CCCCN)NC(=O)[C@H](Cc1ccc(O)cc1)NC(C)=O)C(C)C)[C@@H](C)O)C(C)C)C(=O)NCC(=O)N[C@@H](CC(C)C)C(=O)O` [Ac-hGPR8L (2-23), Ac-Tyr-Lys-His -Val-Ala-Ser-Pro-Arg-Tyr-His-Thr-Val-Gly-Arg-Ala-Ala-Gly-Leu-Leu-Met-Gly-Leu] (Ac-YKHVASPRYHTVGRAAGLLMGL-OH; C-terminus assumed), 570 nM.
With `CSCC[C@H](NC(=O)[C@H](CC(C)C)NC(=O)[C@H](CC(C)C)NC(=O)CNC(=O)[C@H](C)NC(=O)[C@H](C)NC(=O)[C@H](CCCNC(=N)N)NC(=O)CNC(=O)[C@@H](NC(=O)[C@@H](NC(=O)[C@H](Cc1c[nH]cn1)NC(=O)[C@H](Cc1ccc(O)cc1)NC(=O)[C@@H](N)CCCNC(=N)N)[C@@H](C)O)C(C)C)C(=O)NCC(=O)N[C@@H](CC(C)C)C(=O)O` [hGPRBL (9-23), Arg-Tyr-His-Thr-Val-Gly-Arg -Ala-Ala-Gly-Leu-Leu-Met-Gly-Leu] (H-RYHTVGRAAGLLMGL-OH; C-terminus assumed) the figure was 2500 nM; with `CSCC[C@H](NC(=O)[C@H](CC(C)C)NC(=O)[C@H](CC(C)C)NC(=O)CNC(=O)[C@H](C)NC(=O)[C@H](C)NC(=O)[C@H](CCCNC(=N)N)NC(=O)CNC(=O)[C@@H](NC(=O)[C@@H](NC(=O)[C@H](Cc1c[nH]cn1)NC(=O)[C@H](Cc1ccc(O)cc1)NC(=O)[C@H](CCCNC(=N)N)NC(=O)[C@@H]1CCCN1C(=O)[C@H](CO)NC(=O)[C@H](C)NC(=O)[C@@H](NC(=O)[C@H](Cc1c[nH]cn1)NC(=O)[C@H](CCCCN)NC(=O)[C@H](Cc1ccc(O)cc1)NC(=O)[C@H](Cc1c[nH]c2ccccc12)NC(=O)OCC1c2ccccc2-c2ccccc21)C(C)C)[C@@H](C)O)C(C)C)C(=O)NCC(=O)N[C@@H](CC(C)C)C(=O)O` [Fmoc-hGPR8L (1-23)], 0.23 nM; with `CSCC[C@H](NC(=O)[C@H](CC(C)C)NC(=O)[C@H](CC(C)C)NC(=O)CNC(=O)[C@H](C)NC(=O)[C@H](C)NC(=O)[C@H](CCCNC(=N)N)NC(=O)CNC(=O)[C@@H](NC(=O)[C@@H](NC(=O)[C@H](Cc1c[nH]cn1)NC(=O)[C@H](Cc1ccc(O)cc1)NC(=O)[C@H](CCCNC(=N)N)NC(=O)[C@@H]1CCCN1C(=O)[C@H](CO)NC(=O)[C@H](C)NC(=O)[C@@H](NC(=O)[C@H](Cc1c[nH]cn1)NC(=O)[C@H](CCCCN)NC(=O)[C@H](Cc1ccc(O)cc1)NC(=O)[C@H](N)Cc1c[nH]c2ccccc12)C(C)C)[C@@H](C)O)C(C)C)C(=O)NCC(=O)N[C@@H](CC(C)C)C(=O)O` [[D-Trp^1]-hGPR8L (1-23), D-Trp-Tyr-Lys-His-Val -Ala-Ser-Pro-Arg-Tyr-His-Thr-Val-Gly-Arg-Ala-Ala-Gly-Leu-Leu-Met-Gly-Leu], 1.3 nM.
With `CSCC[C@H](NC(=O)[C@H](CC(C)C)NC(=O)[C@H](CC(C)C)NC(=O)CNC(=O)[C@H](C)NC(=O)[C@H](C)NC(=O)[C@H](CCCNC(=N)N)NC(=O)CNC(=O)[C@@H](NC(=O)[C@@H](NC(=O)[C@H](Cc1c[nH]cn1)NC(=O)[C@H](Cc1ccc(O)cc1)NC(=O)[C@H](CCCNC(=N)N)NC(=O)[C@@H]1CCCN1C(=O)[C@H](CO)NC(=O)[C@H](C)NC(=O)[C@@H](NC(=O)[C@H](Cc1c[nH]cn1)NC(=O)[C@H](CCCCN)NC(=O)[C@H](Cc1ccc(O)cc1)NC(=O)CCc1c[nH]c2ccccc12)C(C)C)[C@@H](C)O)C(C)C)C(=O)NCC(=O)N[C@@H](CC(C)C)C(=O)O` [IndPr-hGPR8L (2-23)] (HELM PEPTIDE1{[O=C(CCc1c[nH]c2ccccc12)[*:2]].Y.K.H.V.A.S.P.R.Y.H.T.V.G.R.A.A.G.L.L.M.G.L}$$$$V2.0; C-terminus assumed) the figure was 0.12 nM; with `CC(C)C[C@H](NC(=O)CNC(=O)[C@H](C)NC(=O)[C@H](C)NC(=O)[C@H](CCCNC(=N)N)NC(=O)CNC(=O)[C@@H](NC(=O)[C@@H](NC(=O)[C@H](Cc1c[nH]cn1)NC(=O)[C@H](Cc1ccc(O)cc1)NC(=O)[C@H](CCCNC(=N)N)NC(=O)[C@@H]1CCCN1C(=O)[C@H](CO)NC(=O)[C@H](C)NC(=O)[C@@H](NC(=O)[C@H](Cc1c[nH]cn1)NC(=O)[C@H](CCCCN)NC(=O)[C@H](Cc1ccc(O)cc1)NC(=O)[C@@H](N)Cc1c[nH]c2ccccc12)C(C)C)[C@@H](C)O)C(C)C)C(=O)O` [hGPR8L (1-19), Trp-Tyr-Lys-His-Val-Ala-Ser -Pro-Arg-Tyr-His-Thr-Val-Gly-Arg-Ala-Ala-Gly-Leu] (H-WYKHVASPRYHTVGRAAGL-OH; N-terminus and C-terminus assumed), 9.9 nM.
